Measured values from patent US9764046B2, “Labeling composition for intraocular tissue, labeling method of intraocular tissue, and screening method” (CANON KABUSHIKI KAISHA, priority 2008, dated 2017).

How the values were obtained:
[1] = system: fundus (retina) of Zebrafish fry; assay: In vivo intraocular observation of the fundus of living Zebrafish fry by confocal microscope; conditions: 1 μg/mL, 1 hour exposure;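 further: +++ photoreceptor and inner retinal layers stained ++ mainly photoreceptor layer − none seen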
Protocol: In an arbitrary well of a 24-well multiplate, were put 1 mL of Staining Liquid 2 and a fry of Zebrafish, and the plate was left to stand for 1 hour. A process of removing Staining Liquid 2 in the well and replacing it by 1 mL of distilled water was then performed 3 times.
The fry was then put in a 0.7% agarose solution and placed on a slide glass to observe the fundus of the fry through a confocal microscope.

[2] = system: intraocular tissue (retinal tissue incl. photoreceptor cell layer, vitreous body) of Zebrafish 7-day-old embryo; assay: Staining of intraocular tissue of Zebrafish fry by exposure to staining liquid, ocular tissue section observed by confocal microscope; format: in vivo; conditions: Zebrafish 7 dpf fry, 1 μg/mL, 1 hour exposure, fixed ocular section
[3] = Excitation and fluorescence wavelengths by fluorescence spectrometer FL4500; format: physicochemical; conditions: aqueous solution: 10 mg/mL DMSO solution diluted to 1/500 with purified water (Examples 1 to 94); in nm (unit assumed)
[4] = system: photoreceptor cell layer in tissue section of the Zebrafish eyeball; assay: Stained slide of frozen tissue section of Zebrafish eyeball, co-staining with anti-Zpr-1 or anti-Zpr-3 antibody
Description: After an eyeball of a fry of Zebrafish 7-day-old embryo (7 dpf) was immobilized with a PBS solution of 4% paraformaldehyde (PFA), the solution was replaced by a PBS solution of 30% sucrose, and the eyeball was embedded in an OCT compound (product of Tissue-Tek Co.) and frozen with liquid nitrogen. The frozen sample was sliced into a 7-1 μm section by Cryostat (Tissue•Tek Cryo 3, manufactured by Sakura Finetek Japan Co., Ltd.) and extended on a MAS-coated slide glass (product of […] GLASS IND., LTD) to obtain a tissue section slide of the Zebrafish eyeball. The slide glass was treated with a blocking solution (Blocking One, product of Nakarai Co.) for 30 minutes at room temperature, and an anti-Zpr-1 antibody (which stains red and green cone cells) diluted with PBS was mounted as a primary antibody on the slide glass and treated for 12 hours at 4° C. The slide glass was then washed 3 times with PBST for 10 minutes, and a secondary antibody (Alexa 488-anti-mouse IgG antibody) and 1 μg/mL of Compound 5 were diluted with PBS and mounted on the slide glass for 1 hour at room temperature. The slide glass was washed 3 times with PBST for 10 minutes, Fluoromount G (product of Southem Biotechnology Co.) was mounted thereon, and a cover glass was placed thereon. The thus-obtained stained slide of the tissue section of the Zebrafish eye ball was observed through a confocal microscope.
A stained slide of a tissue section of a Zebrafish eye ball was prepared according to the same process as in Example 120 except that the primary antibody used in Example 120 was changed to an anti-Zpr-3 antibody (which stains rod cells), and observed through a confocal microscope.

retina of B10 mouse = assay: Staining of mouse intraocular tissue after administration to the abdominal cavity; format: in vivo; conditions: 3-month-old B10 mouse, 0.2 mL of 10 mg/mL supernatant to abdominal cavity, eyeball taken after 1 hour
Protocol: Staining compound 81 was added to an equimolar amount of a NaOH solution so as to give a concentration of 10 mg/mL, and the resultant mixture was centrifuged for 5 minutes at 14 krpm to obtain a supernatant. To an abdominal cavity of a 3-month-old B10 mouse, was administered 0.2 mL of this supernatant at one time. After 1 hour, the thus-treated animal was sacrificed under anesthesia by diethyl ether, and an eyeball thereof was taken out. The eyeball taken was embedded in an OCT compound and frozen in isopentane chilled with liquid nitrogen. This eyeball was sliced into a thickness of about 5 μm in a cryostat chilled to −20° C., and this slice was placed on a slide glass and dried to prepare a section of an ocular tissue. The thus-prepared ocular tissue section was observed through a confocal microscope (Pascal Exciter, manufactured by Zeiss Co.).

λem (fluorescence wavelength) [3]	λex (excitation wavelength) [3]	SMILES	Result of observation (staining ability, in vivo fundus) [1]	Staining ability [2]	Overlap of stained images with anti-Zpr-1 antibody (red and green cone cells) in the photoreceptor cell layer ([4]; Example 120, 1 μg/mL on frozen section)	Overlap of stained images with anti-Zpr-3 antibody (rod cells) in the photoreceptor cell layer ([4]; Example 121, 1 μg/mL on frozen section)	Selectivity of staining within the photoreceptor cell layer ([4]; Examples 120 and 121)	Staining of photoreceptor cell layer and of red and green cone cells ([4]; conclusion from Example 120)	Cell types stained in the photoreceptor cell layer ([4]; conclusion from Example 121)	Staining ability to the retina (retina of B10 mouse)
577	556	CCN(CC)c1ccc2cc3c(oc2c1)c(C#N)c(=N)n1c2ccccc2nc31 [Compound 5]	+++	+++	did not overlap	partially overlapped	selectively stains a part of the cell types in the photoreceptor cell layer or of the cell bodies existing in the photoreceptor cell layer	has staining ability to the photoreceptor cell layer but does not stain the red and green cone cells in the photoreceptor cell layer	has stained the rod cells and at least one kind of cell type of blue or ultraviolet cone cells	–
604	576	CCN1c2ccc(/C=C3/SC(=S)N(CCC(=O)O)C3=O)cc2C2CCCC21 (centres unmarked) [Compound 81]	+++	++	–	–	–	–	–	has staining ability to the retina
